Measurements taken from ChEMBL document CHEMBL6134821, “Design, synthesis, and biological evaluation of novel BTK-targeting proteolysis targeting chimeras (PROTACs) with enhanced pharmacokinetic properties” (Eur J Med Chem, 2025).

Experiments:
[1] = biological target: T1, Protein cereblon/Tyrosine-protein kinase BTK (Homo sapiens, UniProt Q06187+Q96SW2); test: PROTAC activity at CRBN/BTK in human JeKo-1 cells assessed as BTK degradation at 10 nM incubated for 24 hrs by Western blot analysis relative to control; format: cell-based
Target sequence in this assay (Q06187 2-659 limits assumed): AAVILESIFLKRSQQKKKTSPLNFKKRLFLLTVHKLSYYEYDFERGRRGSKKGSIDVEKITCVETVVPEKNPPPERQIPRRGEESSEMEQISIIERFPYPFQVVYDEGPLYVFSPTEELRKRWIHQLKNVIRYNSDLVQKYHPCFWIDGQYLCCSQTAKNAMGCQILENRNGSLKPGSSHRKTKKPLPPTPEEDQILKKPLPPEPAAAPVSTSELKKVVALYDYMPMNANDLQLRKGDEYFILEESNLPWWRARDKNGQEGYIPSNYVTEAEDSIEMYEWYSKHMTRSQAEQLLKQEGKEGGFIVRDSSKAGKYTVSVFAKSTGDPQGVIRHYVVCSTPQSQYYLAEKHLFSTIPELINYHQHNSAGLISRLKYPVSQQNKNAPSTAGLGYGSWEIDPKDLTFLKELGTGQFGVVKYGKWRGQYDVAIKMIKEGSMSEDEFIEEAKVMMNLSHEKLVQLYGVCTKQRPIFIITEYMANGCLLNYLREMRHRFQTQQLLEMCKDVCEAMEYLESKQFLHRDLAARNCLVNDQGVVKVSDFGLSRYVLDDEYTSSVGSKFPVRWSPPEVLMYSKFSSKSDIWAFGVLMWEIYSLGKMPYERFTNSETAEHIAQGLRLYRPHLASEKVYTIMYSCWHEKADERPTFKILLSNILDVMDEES
Target sequence in this assay (Q96SW2 whole entry partner): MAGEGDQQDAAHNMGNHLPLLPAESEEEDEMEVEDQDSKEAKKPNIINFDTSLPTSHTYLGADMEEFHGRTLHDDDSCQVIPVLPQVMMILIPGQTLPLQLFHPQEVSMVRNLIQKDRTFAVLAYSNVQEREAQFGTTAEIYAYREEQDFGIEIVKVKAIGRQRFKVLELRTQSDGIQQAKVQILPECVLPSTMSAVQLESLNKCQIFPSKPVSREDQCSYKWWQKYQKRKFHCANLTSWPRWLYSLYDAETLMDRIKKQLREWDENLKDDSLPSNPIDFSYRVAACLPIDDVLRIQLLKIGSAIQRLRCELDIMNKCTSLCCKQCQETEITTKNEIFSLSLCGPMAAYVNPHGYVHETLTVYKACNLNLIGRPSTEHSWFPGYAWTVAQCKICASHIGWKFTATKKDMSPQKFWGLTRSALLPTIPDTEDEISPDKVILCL

[2] = biological target: T1, Protein cereblon/Tyrosine-protein kinase BTK; test: PROTAC activity at CRBN/BTK in human JeKo-1 cells assessed as BTK degradation at 30 nM incubated for 24 hrs by Western blot analysis relative to control; format: cell-based
Target sequence in this assay (Q06187 2-659 limits assumed): as the sequence (Q06187 2-659 limits assumed) above
Target sequence in this assay (Q96SW2 whole entry partner): as the sequence (Q96SW2 whole entry partner) above

[3] = biological target: T1, Protein cereblon/Tyrosine-protein kinase BTK; test: PROTAC activity at CRBN/BTK in human JeKo-1 cells assessed as BTK degradation at 100 nM incubated for 24 hrs by Western blot analysis relative to control; format: cell-based
Target sequence in this assay (Q06187 2-659 limits assumed): as the sequence (Q06187 2-659 limits assumed) above
Target sequence in this assay (Q96SW2 whole entry partner): as the sequence (Q96SW2 whole entry partner) above

[4] = Cytotoxicity against human TMD8 cells harboring wild-type BTK assessed as inhibition of cell viability incubated for 5 days by CCK8 assay; format: functional, cell-based; details: TMD8, 120 h
[5] = Cytotoxicity against human TMD8 cells harboring BTK C481S mutant assessed as inhibition of cell viability incubated for 5 days by CCK8 assay; format: functional, cell-based; details: TMD8, 120 h
[6] = biological target: T1, Protein cereblon/Tyrosine-protein kinase BTK; test: PROTAC activity at CRBN/BTK in human JeKo-1 cells assessed as BTK degradation incubated for 24 hrs by Western blot analysis; format: cell-based
Target sequence in this assay (Q06187 whole entry): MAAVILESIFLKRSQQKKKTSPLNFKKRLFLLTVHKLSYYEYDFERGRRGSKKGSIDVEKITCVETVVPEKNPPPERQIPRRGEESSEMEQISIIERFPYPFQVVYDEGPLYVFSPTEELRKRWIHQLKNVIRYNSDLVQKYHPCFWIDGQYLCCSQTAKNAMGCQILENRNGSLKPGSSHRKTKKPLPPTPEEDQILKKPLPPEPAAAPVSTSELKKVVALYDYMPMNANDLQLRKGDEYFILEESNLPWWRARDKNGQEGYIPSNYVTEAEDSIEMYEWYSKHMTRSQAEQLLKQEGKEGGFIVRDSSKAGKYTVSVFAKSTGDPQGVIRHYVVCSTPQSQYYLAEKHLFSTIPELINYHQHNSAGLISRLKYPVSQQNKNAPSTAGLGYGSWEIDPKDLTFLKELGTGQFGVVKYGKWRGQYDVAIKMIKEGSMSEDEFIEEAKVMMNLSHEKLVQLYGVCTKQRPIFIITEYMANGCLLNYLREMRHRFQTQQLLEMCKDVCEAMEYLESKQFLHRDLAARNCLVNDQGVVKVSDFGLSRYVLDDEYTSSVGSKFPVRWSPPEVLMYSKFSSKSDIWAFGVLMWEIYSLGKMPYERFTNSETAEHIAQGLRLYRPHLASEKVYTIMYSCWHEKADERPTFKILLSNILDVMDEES
Target sequence in this assay (Q96SW2 whole entry): as the sequence (Q96SW2 whole entry partner) above

[7] = Microsomal stability in human liver microsomes assessed as half life measured up to 60 mins in presence of NADPH by LC-MS/MS analysis; format: ADME, Microsome
[8] = Microsomal stability in human liver microsomes assessed as intrinsic clearance in microsomes measured up to 60 mins in presence of NADPH by LC-MS/MS analysis; format: ADME, Microsome; details: read-out: CLH
[9] = Microsomal stability in human liver microsomes assessed as intrinsic clearance in liver measured up to 60 mins in presence of NADPH by LC-MS/MS analysis; format: ADME, Microsome; details: read-out: CLH
[10] = Microsomal stability in human liver microsomes assessed as compound remaining measured up to 60 mins in presence of NADPH by LC-MS/MS analysis; format: ADME, Microsome; details: read-out: Stability
[11] = Microsomal stability in human liver microsomes assessed as compound remaining measured up to 60 mins by LC-MS/MS analysis; format: ADME, Microsome; details: read-out: Stability

Activity [1] [%] | Activity [2] [%] | Activity [3] [%] | DC50 [6] [nM] | half-life [7] [h] | microsomal CLint [8] [µL/min/mg] | CLint scaled [9] [mL/min/kg] | remaining at 1 h [10] [%] | remaining at 1 h [11] [%] | Compound | IC50 [4] [nM] | IC50 [5] [nM]
4 | 54 | 73 |  |  |  |  |  |  | O=C1CCC(NC(=O)c2ccc(N3CCC(CCN4CCC(CC(=O)N[C@H]5CC[C@@H](Nc6ncnc7[nH]cc(C(=O)c8ccc(Oc9ccccc9)cc8Cl)c67)CC5)CC4)CC3)cn2)C(=O)N1 (some centres not stated) |  | 
88 | 94 | 98 |  |  |  |  |  |  | O=C1CCC(N2Cc3cc(N4CCC(CCN5CCC(CC(=O)N[C@H]6CC[C@H](Nc7ncnc8[nH]cc(C(=O)c9ccc(Oc%10ccccc%10)cc9Cl)c78)C6)CC5)CC4)c(F)cc3C2=O)C(=O)N1 (some centres not stated) |  | 
65 | 53 | 47 |  |  |  |  |  |  | O=C1CCC(N2Cc3cc(N4CCC(CCN5CCC(CC(=O)N6CCN(c7ncnc8[nH]cc(C(=O)c9ccc(Oc%10ccccc%10)cc9Cl)c78)CC6)CC5)CC4)c(F)cc3C2=O)C(=O)N1 (configuration not stated) |  | 
83 | 92 | 89 |  |  |  |  |  |  | O=C1CCC(N2Cc3cc(N4CCC(CCN5CCC(CC(=O)N[C@H]6CC[C@@H](Nc7ncnc8[nH]cc(C(=O)c9ccc(Oc%10ccccc%10)cc9Cl)c78)CC6)CC5)CC4)c(F)cc3C2=O)C(=O)N1 (some centres not stated) | 23.9 | 27.4
84 | 91 | 93 | 3.1 | 1.13 | 20.3 | 18.2 | 53.9 | 94.6 | O=C1CCC(c2ccc(N3CCC(CN4CCC(CC(=O)N[C@H]5CC[C@H](Nc6ncnc7[nH]cc(C(=O)c8ccc(Oc9ccccc9)cc8)c67)C5)CC4)CC3)nc2)C(=O)N1 (some centres not stated) |  | 
79 | 85 | 89 |  |  |  |  |  |  | O=C1CCC(c2ccc(N3CCC(CCN4CCC(CC(=O)N[C@H]5CC[C@@H](Nc6ncnc7[nH]cc(C(=O)c8ccc(Oc9ccccc9)cc8Cl)c67)CC5)CC4)CC3)cc2)C(=O)N1 (some centres not stated) |  | 
41 | 46 | 54 |  |  |  |  |  |  | O=C1CCC(N2Cc3cc(N4CCC(CCN5CCC(CC(=O)N[C@@H]6CCC[C@H](Nc7ncnc8[nH]cc(C(=O)c9ccc(Oc%10ccccc%10)cc9Cl)c78)C6)CC5)CC4)c(F)cc3C2=O)C(=O)N1 (some centres not stated) |  | 
64 | 88 | 91 |  |  |  |  |  |  | O=C1CCC(n2ncc(N3CCC(CCN4CCC(CC(=O)N[C@H]5CC[C@@H](Nc6ncnc7[nH]cc(C(=O)c8ccc(Oc9ccccc9)cc8Cl)c67)CC5)CC4)CC3)c(Cl)c2=O)C(=O)N1 (some centres not stated) |  | 
